{
  "source": "patent US11298383B2",
  "about": "“Lactobacillus and bacillus based direct fed microbial treatment for poultry and method of use” (priority 2016, dated 2022)",
  "key": {"[1]": {"tested_on": "inflammatory cytokine gene expression (MIP2, TNFα, IL-6) in IEC-6 rat intestinal epithelial cells", "test": "Inflammatory cytokine gene expression (qPCR) in IEC-6 cells with and without LPS challenge (Example 6)", "assay_type": "cell-based", "conditions": "LPS alone, 1 hr at 37° C."}, "[2]": {"tested_on": "avian pathogenic Escherichia coli (APEC)", "assay_type": "in vivo", "conditions": "3 days of age; ½ dose in ovo gentamycin; all birds treated with the product"}, "[3]": {"tested_on": "avian pathogenic Escherichia coli (APEC)", "test": "APEC levels in GI tract of commercial broilers at 12-15 days, with and without in ovo gentamycin (Example 2)", "assay_type": "in vivo", "conditions": "GI tract of broilers at 12-15 days of age"}},
  "data": [
    {"substance": "Lipopolysaccharide", "values": [
      {"measurement": "increase in gene expression of all three inflammatory cytokines (MIP2, TNFα, IL-6) relative to unstimulated control cells", "setting": "[1]", "value": "> 50", "unit": "fold"}
    ]},
    {"substance": "gentamycin", "values": [
      {"measurement": "APEC levels, gentamycin-treated vs untreated birds", "setting": "[2]", "value": "not statistically different"},
      {"measurement": "birds with detectable levels of APEC", "setting": "[3]", "value": "2 out of 10 birds"},
      {"measurement": "average APEC level", "setting": "[3]; ten birds per treatment", "value": "6.6×10^1 CFU/g"}
    ]}
  ]
}
